# Legend:
# [1] = tested on: ciliary artery; test: Ciliary artery contraction, myograph method (tissue ring contracted with angiotensin II); parameters: species or system pig
# Excerpt: For the myographic determinations, a short segment (7-8 mm) of the ciliary arteries of fresh eyes, e.g. pig's eyes, is dissected and cut into small rings of thickness 2 mm under a microscope (cf. for this K. Yao et al. Invest. Ophthalmaol. Vis. Sci. 32, 1791-1798(1991) and M. J. Mulvany, W. Halpern Circ. res. 41, 19-26(1977)). During the preparation, the tissue is immersed in modified Krebs-Ringer bicarbonate solution. These rings (diameter about 200-400 μm) are installed in the myograph system without delay. Such a tissue ring is stretched using two tungsten wires (diameters 30 and 80 μm), the wires being passed through the lumen. One wire is connected to the power transmission, the other to a micromanipulator for adjustment of muscle length. The tissue ring is immersed in a control solution during the experiment (37°; 95% O2; 5% CO2; pH=7.4) and equilibrated for 45 minutes before testing.
# The tissue ring is stretched stepwise and at the same time 100 mM KCl is added in each case. The optimum passive tension is then defined as the tension at which the contraction with 100 mM KCl is greatest. For ciliary arteries, an averaged value for the tension of 977 mg±60 mg is found. The active residual tone of this tissue is defmed as the difference between the optimum passive tension and the tension after a maximum relaxation with 10^-6 molar bradykinin. The corresponding tension is 174 mg±38 mg. In all subsequent experiments, the abovementioned tissue rings are slowly stretched at 100 mg intervals until the optimum is reached.
# Before the actual experiment, the endothelial function of such a tissue ring is checked for intactness. The tissue rings are challenged to contract by using 3. 10^-7 molar serotonin solution and in the experimental procedure described above. Thereafter it is checked whether a complete relaxation of the contracted tissue ring occurs with 3. 10^-7 molar bradykinin solution. If this condition is fulfilled, the tissue is held to be intact.
# Determination of the ciliary artery contraction using the myograph method
# After it was verified as described above that the endothelial functions of a tissue ring of a ciliary artery are intact, the tissue ring preparation is incubated (contracted) with 10^-7 M angiotensin II, and then relaxed with various doses of the angiotensin II antagonist valsartan.
# [2] = tested on: perfused isolated pig's eye; test: Ophthalmic flow in the perfused isolated pig's eye
# Method: For the perfusion method on the isolated pig's eye, the fatty tissue which surrounds the extraocular muscles is carefully removed. During this preparation, the ocular globe is surrounded with modified Krebs-Ringer bicarbonate solution at 4° C. The ocular globe is then cannulated under the microscope using a polyethylene cannula (600 μm diameter), namely via the common ophthalmic artery.
# Following this preparation, the ocular globe is connected via the polyethylene cannula to a Langendorff perfusion system, and in this way supplied at the latest 1 hour after the start of preparation with a filtered and oxygenated Krebs solution which contains 0.5% albumin.
# The catheterization of the common ophthalmic artery guarantees the complete perfusion both of the choroidal and of the retinal tissue and of the small extraocular muscular arteries. The perfused ocular globe is immersed in a thermostated (37° C.) control bath with a glass jacket with the cornea pointed downwards. The overflow rate (ml/min) in the bath corresponds to the ophthalmic flow. Before testing a composition, the ocular globe is equilibrated for 20 minutes. In a control experiment, it is shown that the ophthalmic flow in the experimental procedure selected remains constant for about 120 minutes after the start of the perfusion. All tests are therefore carried out within this time frame.
# A perfused isolated pig's eye is first treated as described above with a control solution and then with a solution comprising angiotensin II (10^-6 M). After the determination of the angiotensin II effect, valsartan (10^-5 M) is additionally added on top of the above exposure. The relative ophthalmic flow rate resulting in this way is shown below.
Molecule,"Relative contraction in comparison to 100 mM KCl ([1]; 10^-7 M angiotensin II alone, no valsartan (pure angiotensin II effect)) [%]",Decrease in the relative ophthalmic flow ([2]; angiotensin II 10^-6 M alone) [%],"Relative contraction in comparison to 100 mM KCl ([1]; ciliary artery ring contracted with 10^-7 M angiotensin II, valsartan 10^-5 M) [%]","Relative contraction in comparison to 100 mM KCl ([1]; ciliary artery ring contracted with 10^-7 M angiotensin II, valsartan 10^-6 M) [%]","Relative contraction in comparison to 100 mM KCl ([1]; ciliary artery ring contracted with 10^-7 M angiotensin II, valsartan 10^-7 M) [%]","Relative contraction in comparison to 100 mM KCl ([1]; ciliary artery ring contracted with 10^-7 M angiotensin II, valsartan 10^-8 M) [%]","Relative contraction in comparison to 100 mM KCl ([1]; ciliary artery ring contracted with 10^-7 M angiotensin II, valsartan 10^-9 M) [%]",Contracting effect of angiotensin II on the ciliary artery ([1]; valsartan added after 10^-7 M angiotensin II),Decrease in the relative ophthalmic flow ([2]; angiotensin II 10^-6 M plus valsartan 10^-5 M) [%],Blood flow-decreasing action of angiotensin II ([2]; valsartan 10^-5 M on top of angiotensin II 10^-6 M)
"Angiotensin II: contracting agonist used to contract the ciliary artery and decrease ophthalmic flow (DRVYIHPF; Angiotensin-2; UniProt P01019 25-32, looked up)",27.9 ± 8.7,24.5 ± 3.05,–,–,–,–,–,–,–,–
CCCCC(=O)N(Cc1ccc(-c2ccccc2-c2nn[nH]n2)cc1)[C@H](C(=O)O)C(C)C [valsartan],–,–,0.9 ± 0.45,0.93 ± 0.4,5.15 ± 1.6,8.1 ± 1.5,18.7 ± 2.2,quantitatively abolished,6.82 ± 3.02,strongly reduced
